Test results as given in patent publication US4473554A, “Bestatin-related compounds as immunopotentiator” (Zaidan Hojin Biseibutsu Kagaku Kenkyu Kai, priority 1982, dated 1984).
In brackets after ≈: the same amount, converted by molar mass.

Columns and labels:
aminopeptidase B = target: T1, aminopeptidase B (Rattus norvegicus, UniProt O09175); assay: aminopeptidase B-inhibiting activity (modified Hopsu method, arginine β-naphthylamide substrate); format: biochemical; settings: 37° C., pH 7.0, 30 minutes
T1 sequence (O09175 1-650): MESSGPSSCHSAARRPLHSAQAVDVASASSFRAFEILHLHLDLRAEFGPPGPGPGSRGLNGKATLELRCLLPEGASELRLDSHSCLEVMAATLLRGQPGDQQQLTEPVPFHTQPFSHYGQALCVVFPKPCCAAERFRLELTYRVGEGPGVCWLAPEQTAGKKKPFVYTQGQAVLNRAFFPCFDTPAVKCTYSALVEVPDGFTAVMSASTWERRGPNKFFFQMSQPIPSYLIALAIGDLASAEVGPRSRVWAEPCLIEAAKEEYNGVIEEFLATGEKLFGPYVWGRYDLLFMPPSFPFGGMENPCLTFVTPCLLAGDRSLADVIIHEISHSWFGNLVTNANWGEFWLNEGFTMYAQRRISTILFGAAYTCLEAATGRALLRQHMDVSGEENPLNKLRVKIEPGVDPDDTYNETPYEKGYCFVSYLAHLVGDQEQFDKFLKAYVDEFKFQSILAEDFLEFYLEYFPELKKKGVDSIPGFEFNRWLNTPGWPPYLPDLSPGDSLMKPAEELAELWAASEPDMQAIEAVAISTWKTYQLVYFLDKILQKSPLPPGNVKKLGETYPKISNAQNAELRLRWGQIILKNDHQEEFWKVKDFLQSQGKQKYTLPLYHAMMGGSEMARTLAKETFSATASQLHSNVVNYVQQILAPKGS
Method: The aminopeptidase B-inhibiting activity was determined according to a modification of the method of V. K. Hopsu et al. described in the "Archives of Biochemistry and Biophysics" Vol. 114, 557 (1966). Thus, a mixture of 0.8 ml of 0.1 mM of (S)-arginine β-naphthylamide and 1.0 ml of 0.1M Tris-hydrochloride buffer (pH 7.0) was admixed with 0.7 ml of 0.1M Tris-hydrochloride buffer (pH 7.0) containing the test compound and then heated at 37° C. for 3 minutes. […] After the reaction at 37° C. for 30 minutes, the reaction solution was admixed with 0.6 ml of 0.1M acetate buffer (pH 4.2) containing 1.0 mg/ml of diazonium salt of o-aminoazotoluene (Garnet GBC) and 1.0% of a surfactant "Tween" 20 (a registered trademark) to stop the enzymatic reaction and then allowed to stand at ambient temperature for 15 minutes. After this, absorbance (a) at 525 nm of the reaction solution was measured by spectrophotometer. For the control, the above procedure was repeated without the test compound and the adsorbence (b) was measured. Percentages for inhibition to aminopeptidase B were calculated according to the equation: [formula] Inhibition percentages at various concentrations of the test compound were measured, and from the values of inhibition percentages measured 50% Inhibition Concentration (IC50) was evaluated.

[1] = test system: D.T.H. response in mice immunized with sheep red blood cell (SRBC); assay: Delayed Type Hypersensitivity (D.T.H.) footpad test in mice immunized with SRBC, Example 2; format: in vivo, mouse; settings: CDF1 mice, control = 100
Method: This Example describes the tests for evaluation of the immunopotentiating activity of the new compound of this invention.
A suspension of 10^8 sheep red blood cells in 0.05 ml of physiological saline was subcutaneously injected at the time of immunization into the right hind footpad of each CDF1 -mouse under test (female, 8 weeks-aged, 5 mice in each group) to establish D.T.H. Simultaneously to the immunization, […] prepared by dissolving the test compound in physiological saline and then filtering the solution by a micropore filter (pore diameter: 0.22 micrometers). Four days later, 10^8 SRBC were subcutaneously injected into the left […] footpad of each test mouse for elicitation of the D.T.H. response. 24 Hours after the elicitating injection, the increased thickness of the left hind footpad was measured with calipers to estimate the degree of swelling in the footpad. The swelling degree is expressed in term of the values calculated by the equation: [formula] The degree of swelling serves to evaluate the degree of cell-mediated immunity involved. For comparison, a suspension of bestatin dispersed in water was tested in the same way as above.

[2] = test system: D.T.H. response in mice immunized with SRBC as antigen; assay: D.T.H. footpad test in mice immunized with SRBC, Examples 3-6 (dosages per mouse); format: in vivo; settings: for Degree of swelling: control = 100
Method: The effect of (2S,3R)-AHPA on cell-mediated immunity was tested in the same way in Example 2, namely according to the D.T.H. technique using mice immunized with sheep red blood cell as antigen. Thus, a suspension of 10^8 sheep red blood cells in 0.05 ml of physiological saline were subcutaneously injected at the time of immunization into the right hind footpad of each CDF1 -mouse under test (female, 8 weeks-aged, 5 mice in each group) to establish D.T.H. […] The degree of swelling was evaluated. By way of comparison, bestatin was tested in the same way as above. […] The effect of (2S,3R)-AHPA on the D.T.H. response was estimated in the same manner as in the above procedure (A) of Example 3 by orally administering 1 mcg/mouse, 0.1 mcg/mouse or 0.01 mcg/mouse of (2S,3R)-AHPA to each mouse under test. […] The effect of the mode of administering (2S,3R)-AHPA on the D.T.H. response was estimated in the same manner as in the procedure (A) of Example 3, except that the test compound (as aqueous solution) was injected intraperitoneally in stead of being given orally.

[3] = test system: D.T.H. response in tumor-bearing (Sarcoma 180) mice immunized with SRBC; assay: D.T.H. footpad test in Sarcoma 180 tumor-bearing mice immunized with SRBC, Example 23; format: in vivo, mouse; settings: Sarcoma 180-bearing CDF1 mice
Method: This Example describes the tests for evaluation of the immunopotentiating activity of the new compound of this invention. Thus, the effect of the new compound of cell-mediated immunity was tested according to a known technique of Delayed Type Hypersensitivity (D.T.H.) (see P. H. Lagrange et al. "J. Exp. Med." Vol. 139, 1529-1539 (1974)) using tumor-bearing mice which had been immunized with sheep red blood cell (SRBC) as antigen as inoculated into the footpad of the mice.
Thus, a suspension of 10^8 sheep red blood cells in 0.05 ml of physiological saline was subcutaneously injected at the time of immunization into the right hind footpad of each CDF1 -mouse under test (female, 8 weeks-aged, 6 mice in each group) to which 10^6 cells of the tumor cell, Sarcoma 180 had been inoculated intraperitoneally.
On the same day as the day when the immunization with SRBC was effected, as well as on the subsequent, consecutive four days, the mouse under test were then treated by intraperitoneal administration of 0.05 mg/kg, 0.5 mg/kg or 5 mg/kg per day of the test compound as the solution which was prepared by dissolving the test compound in physiological saline and then filtering the solution by a micropore filter (pore diameter: 0.22 micrometers). Two days after the immunization with SRBC, 10^8 SRBC were subcutaneously injected into the left hind footpad of each test mouse for elicitation of the D.T.H. responde. 24 Hours after the elicitating injection, the increased thickness of the left hind footpad was measured with calipers to estimate the degree of swelling in the footpad. The swelling degree is expressed in term of the values calculated by the equation: [formula] The degree of swelling serves to evaluate the degree of cell-mediated immunity involved. For comparison, a suspension of bestatin dispersed in water was tested in the same way as above.

ICR-strain mice = assay: acute toxicity, intraperitoneal, ICR-strain mice; format: in vivo, mouse; settings: dosage of 100 mg/kg
Description: In order to estimate the acute toxicity of the compound of the formula (VIII) or (IIId), some of the test compound was intraperitoneally given to ICR-strain mice (in groups each consisting of 6 mice, male, 5 weeks-aged, average body weight 20 g.), when all the tested mice tolerated intraperitoneal administration of (2S,3R)-APHA; (2S)-2-N-[(2'S,3'R)-3'-amino-2'-hydroxy-4'-phenyl-butanoyl]amino-4-methyl- pentanol; (2S)-2-N-[(2'S,3'R)-3'-amino-2'-hydroxy-4'-phenylbutanoyl-(S)-leucyl]amino-4-methyl-pentanol; (2S,3R)-3-amino-2-hydroxy-4-phenylbutanoyl-(S)-leucyl-(S)-leucine; (2S,3R)-3-amino-2-hydroxy-4-phenyl-butanoyl-(S)-leucyl-(S)-arginine; (2S,3R)-3-amino-2-hydroxy-4-phenylbutanoyl-(S)-leucyl-(S)-asparagine; (2R,3R)-3-amino-2-hydroxy-4-phenylbutanoyl-(S)-leucyl-(R)-asparagine; and (2S,3R)-3-amino-2-hydroxy-4-phenylbutanoyl-(S)-leucyl-(R)-arginine at a dosage of 100 mg/kg.

Row | SMILES | IC50 (aminopeptidase B) | Degree of swelling ([1]; oral 0.5 mg/kg at immunization) | Degree of swelling ([3]; intraperitoneal 5 mg/kg/day) | solubility in water (solubility in water) | Degree of swelling ([3]; intraperitoneal 0.5 mg/kg/day) | acute toxicity: tolerance of intraperitoneal administration (ICR-strain mice) | also measured
1 | CC(C)C[C@H](NC(=O)[C@@H](O)[C@H](N)Cc1ccccc1)C(=O)O [Bestatin, (2S, 3R)-3-amino-2-hydroxy-4-phenylbutanoyl-(S)-leucine] | 0.03 µg/mL (≈ 0.0973 µM) | 140-150% | 130% | sparingly soluble in water | – | – | Degree of swelling ([1]; oral 0.05 mg/kg at immunization): 120-130%; Increase in thickness of footpad (± S.D.) ([2]; Table 3, oral 0.1 mcg/mouse): 9.3 ± 2.70 × 0.1 mm; Degree of swelling ([2]; Table 3, oral 0.1 mcg/mouse): 118%; Increase in thickness of footpad (± S.D.) ([2]; Table 3, oral 1 mcg/mouse): 10.3 ± 0.96 × 0.1 mm; Degree of swelling ([2]; Table 3, oral 1 mcg/mouse): 130%; Increase in thickness of footpad (± S.D.) ([2]; Table 3, oral 10 mcg/mouse): 12.0 ± 1.25 × 0.1 mm; Degree of swelling ([2]; Table 3, oral 10 mcg/mouse): 152%; Increase in thickness of footpad (± S.D.) ([2]; Table 4, oral 1 mcg/mouse): 10.8 ± 1.08 × 0.1 mm; Degree of swelling ([2]; Table 4, oral 1 mcg/mouse): 133%; Degree of swelling, Intraperitoneal injection ([2]; Table 5, intraperitoneal 1 mcg/mouse): 128%; Degree of swelling, Oral administration ([2]; Table 5, oral 1 mcg/mouse): 133%; Increase in thickness of footpad (± S.D.) ([2]; Table 7, oral 1 mcg/mouse): 11.6 ± 0.91 × 0.1 mm; Degree of swelling ([2]; Table 7, oral 1 mcg/mouse): 133%; Increase in thickness of footpad (+ S.D.) ([2]; Table 8, oral 1 mcg/mouse): 10.3 ± 1.36 × 0.1 mm; Degree of swelling ([2]; Table 8, oral 1 mcg/mouse): 121%
2 | CC(C)C[C@H](NC(=O)[C@@H](O)[C@H](N)Cc1ccccc1)C(=O)N[C@@H](CCCNC(=N)N)C(=O)O [Compound No. 5, (2S,3R)-3-amino-2-hydroxy-4-phenyl-butanoyl-(S)-leucyl-(S)-arginine] | 0.11 µg/mL (≈ 0.237 µM) | 135% | 147% | soluble in water | – | – | –
3 | CC(C)C[C@H](NC(=O)[C@H](CC(C)C)NC(=O)[C@@H](O)[C@H](N)Cc1ccccc1)C(=O)O [Compound No. 6, (2S,3R)-3-amino-2-hydroxy-4-phenylbutanoyl-(S)-leucyl-(S)-leucine] | 0.20 µg/mL (≈ 0.474 µM) | 120% | – | – | 152% | – | –
4 | CC(C)C[C@H](NC(=O)[C@@H](O)[C@H](N)Cc1ccccc1)C(=O)N[C@H](CCCNC(=N)N)C(=O)O [Compound No. 10] | 0.39 µg/mL (≈ 0.839 µM) | 134% | – | – | 155% | tolerated | –
5 | CC(C)C[C@H](NC(=O)[C@@H](O)[C@H](N)Cc1ccccc1)C(=O)N[C@@H](CC(N)=O)C(=O)O [Compound No. 11, (2S,3R)-3-amino-2-hydroxy-4-phenylbutanoyl-(S)-leucyl-(S)-asparagine] | 22.4 µg/mL (≈ 53 µM) | 128% | – | – | – | – | Degree of swelling ([3]; intraperitoneal 0.05 mg/kg/day): 155%
6 | CC(C)C[C@H](NC(=O)[C@@H](O)[C@H](N)Cc1ccccc1)C(=O)N[C@H](CC(N)=O)C(=O)O [Compound No. 12, (2S,3R)-3-amino-2-hydroxy-4-phenylbutanoyl-(S)-leucyl-(R)-asparagine] | 4.7 µg/mL (≈ 11.1 µM) | 133% | – | – | 157% | tolerated | –
